Assays:
mTORC1 = test: Immunoblotting of HDOs for P-S6RP and P-P70S6K (mTORC1 activation); assay type: cell-based, human; conditions: HDO, serum free and glutamine free William's E medium (FIG. 20A-C)
Procedure: Human ductal organoids. The normal human liver tissue was obtained through the Cooperative Human Tissue Network (CHTN) at Vanderbilt University Medical Center. The liver was cut into very small pieces in liver digestion medium (Gibco, Waltham, MA; 17703-034). The cell suspension was filtered through a 100-μm cell strainer. The flow through was then centrifuged for 2 min at 100 g, 4° C., and the cell pellet resuspended in ice-cold DMEM (Gibco, Waltham, MA; 11885-084, supplemented by 5% FBS) and centrifuged for 2 min at 300 g. The cell pellet was gently resuspended in Matrigel® (Corning, Corning, NY; 356231) and a […] dome plated in a 24-well plate. The plate was incubated for 10-15 min at 37° C. After solidifying, complete HepatiCult™ Organoid Initiation Medium (OIM) (STEMCELL Technologies, Vancouver, Canada; 100-0384) was added. For passaging, the Matrigel dome was dissociated using TrypLE (Thermo Fisher Scientific, Waltham, MA; 12604013) and incubated at 37° C. for 5 mins. Organoids were washed by resuspending in advanced DMEM/F12 and consecutive resuspension of the organoid pellet. Organoids were resuspended at a 1:10 dilution in Matrigel® and cultured in complete HepatiCult™ Organoid Growth Medium (OGM) (STEMCELL Technologies, Vancouver, Canada; 100-0385) for organoid expansion. For hepatocytic differentiation of hepatic ductal organoids, culture medium was changed to complete HepatiCult™ Organoid Differentiation Medium (ODM) (STEMCELL Technologies, 100-0383) 4 days after passaging. Vehicle, NTF3, BDNF, HGF (20 ng/ml final concentration) or Taletrectinib (Fisher Scientific, Waltham, MA; 502030245, final concentration 10 nM) or torin2 (Fisher Scientific, Waltham, MA; s2817, final concentration 25 nM) were diluted in William's E (without L-glutamine) and added to organoids.
Immunoblotting. HDOs and mpPHH were homogenized in RIPA buffer containing proteinase inhibitors (Roche, Basel, Switzerland; cOmplete™ Mini protease inhibitor, 2 tab/10 ml buffer) and 1×HALT phosphatase inhibitors (Thermo Fisher Scientific, Waltham, MA; catalog no. 78428). Lysates were sonicated and then centrifuged for 10 min at 18,800 g. Protein concentration of supernatants was determined by Direct Detect Spectrophotometer (MilliporeSigma, Burlington, MA). HDOs were treated with growth factors as described above. Lyophilized NTF3 was solubilized with sterile-filtered PBS supplemented with 0.1% BSA, aliquoted, and stored at −80° C. until use. […] HDOs and mpPHH were collected on ice in PBS and centrifuged for 10 s, and the cell pellet was homogenized in RIPA buffer containing inhibitors (Roche, Basel, Switzerland; cOmplete™ Mini protease inhibitor, 1×HALT phosphatase inhibitors, Thermo Fisher Scientific, Waltham, MA; catalog no. 78428). Cell lysates were sonicated and centrifuged for 10 min at 18,800 g. The protein concentration of supernatants was determined by a Direct Detect® spectrophotometer (MilliporeSigma, Burlington, MA). For immunoblot analysis, 10 to 50 μg of protein diluted in […] sample buffer (Invitrogen, Waltham, MA) were analyzed per SDS-polyacrylamide gel electrophoresis (NuPAGE™, Invitrogen, Waltham, MA) using Mops buffer or MES buffer (Invitrogen, Waltham, MA). […] Semi-quantitative band densitometry was performed using ImageJ software (version 1.53).

CCND1 and PCNA = test: Immunoblotting of mpPHH for CCND1 and PCNA; assay type: cell-based, human; conditions: mpPHHs, NTF3
Procedure: Mouse passaged primary human hepatocytes. Mouse-passaged primary human hepatocytes (mpPHHs) were collected as previously described (Michailidis et al., Proc Natl Acad Sci USA. 2020; 117(3): 1678-1688) and cultured in hepatocyte culture media (CC-3198, Lonza, Basel, Switzerland) in collagen-coated chamber slides. Three days before treatment, mpPHH were incubated in William's E media (with L-glutamine). […] 5-15 images per treatment per experiment were randomly taken and EdU positive nuclei quantified.
Immunoblotting. […] Protein concentration of supernatants was determined by Direct Detect Spectrophotometer (MilliporeSigma, Burlington, MA). […] The protein concentration of supernatants was determined by a Direct Detect® spectrophotometer (MilliporeSigma, Burlington, MA). For immunoblot analysis, 10 to 50 μg of protein diluted in […] sample buffer (Invitrogen, Waltham, MA) were analyzed per SDS-polyacrylamide gel electrophoresis (NuPAGE™, Invitrogen, Waltham, MA) using Mops buffer or MES buffer (Invitrogen, Waltham, MA). […] Semi-quantitative band densitometry was performed using ImageJ software (version 1.53).

NTF3: neurotrophin-3, recombinant protein; HSC-derived hepatocyte mitogen, ligand of TRKA, TRKB, TRKC
phosphorylation of P-p70S6 kinase and P-S6 ribosomal protein (S6RP) (mTORC1): significantly increased phosphorylation
CCND1 and PCNA (immunoblotting) (CCND1 and PCNA): induced CCND1 and PCNA

— patent US20250346643A1, “TROPOMYOSIN KINASE RECEPTOR (TRK) LIGANDS AS THERAPEUTICS TO SUPPORT LIVER REGENERATION” (Vanderbilt University, priority 2024, published 2025)
